Laboratory results: ChEMBL document CHEMBL4346723, “Targeting tropomyosin receptor kinase for cancer therapy” (Eur J Med Chem, 2019)

Experiments:
[1] = target: T1, High affinity nerve growth factor receptor (Homo sapiens, UniProt P04629); test: Inhibition of recombinant full length human TRKA expressed in U2OS cells using Poly(Glu:Tyr) as substrate after 30 mins by scintillation counting assay
[2] = target: T1, High affinity nerve growth factor receptor; test: Inhibition TRKA (unknown origin) by cell based assay
[3] = target: T2, Tyrosine-protein kinase JAK2 (Homo sapiens, UniProt O60674); test: Inhibition of recombinant C-terminal His6-tagged human JAK2 (808 to end residues) expressed in baculovirus infected SF21 insect cells at 3 uM using Tyr 1054/1055 biotinylated peptide as substrate after 60 mins by Alphascreen assay relative to control
[4] = Inhibition of TRK (unknown origin); parameters: species or system Homo sapiens
[5] = target: T3, BDNF/NT-3 growth factors receptor (Homo sapiens, UniProt Q16620); test: Inhibition of N- terminal GST-tagged human TRKB cytoplasmic domain (456 to 822 end residues) expressed in baculovirus expression system using TK peptide as substrate after 60 mins by HTRF assay
[6] = target: NT-3 growth factor receptor (Homo sapiens, UniProt Q16288); test: Inhibition of N- terminal GST-tagged human TRKC catalytic domain (456 to 825 end residues) expressed in baculovirus expression system using TK peptide as substrate after 60 mins by HTRF assay
[7] = target: T2, Tyrosine-protein kinase JAK2; test: Inhibition of N-terminal His-tagged human JAK2 catalytic domain (826 to 1132 end residues) expressed in baculovirus expression system using TK peptide as substrate after 120 mins by HTRF assay
[8] = target: T1, High affinity nerve growth factor receptor; test: Inhibition of N- terminal GST-tagged human TRKA cytoplasmic domain (436 to 790 end residues) using TK peptide as substrate after 60 mins by HTRF assay
NTRK1/NTRK2 = NTRK1/NTRK2 (Homo sapiens, UniProt P04629+Q16620); test: Inhibition of TRKA/TRKB (unknown origin); assay type: protein assay
[9] = target: T1, High affinity nerve growth factor receptor; test: Inhibition of NTRK1 in human KM12 cells; assay type: cell-based
[10] = target: T1, High affinity nerve growth factor receptor; test: Inhibition of recombinant His-tagged human TRKA cytoplasmic domain (441 to 796 residues) expressed in baculovirus expression system using biotin labelled TK peptide preincubated for 20 mins followed by substrate addition by HTRF assay
[11] = target: T1, High affinity nerve growth factor receptor; test: Inhibition of TRKA (unknown origin) using poly GT as substrate preincubated for 30 mins followed by substrate addition measured after 30 mins by TR-FRET Assay
[12] = target: T3, BDNF/NT-3 growth factors receptor; test: Inhibition of TRKB (unknown origin)
KM12 = test: cells; conditions: Homo sapiens
Description: Growth inhibition of human KM12 cells

[13] = target: T1, High affinity nerve growth factor receptor; test: Inhibition TRKA (unknown origin)
K562 = test: Growth inhibition of human K562 cells; assay type: functional, cell-based
[14] = target: T1, High affinity nerve growth factor receptor; test: Inhibition of recombinant N- terminal GST-tagged human NTRK1 expressed in baculovirus infected Sf9 cells using Poly(Glu:Tyr) as substrate after 45 mins
[15] = target: T1, High affinity nerve growth factor receptor; test: Inhibition of human TRKA expressed in human AD293 cells assessed as reduction in TrkA phosphorylation at Tyr490 residues preincubated for 20 mins followed by NGF-stimulation measure after 5 mins by ELISA; assay type: cell-based
OVCAR-3 = test: Cytotoxicity against human OVCAR3 cells after 24 to 72 hrs by MTT assay; assay type: functional, cell-based
SK-OV-3 = test: Cytotoxicity against human SKOV3 cells after 24 to 72 hrs by MTT assay; assay type: functional, cell-based
IMR-32 = test: Antiproliferative activity against human IMR32 cells by sulforhodamine B assay; assay type: functional, cell-based

T1 sequence (P04629 whole entry): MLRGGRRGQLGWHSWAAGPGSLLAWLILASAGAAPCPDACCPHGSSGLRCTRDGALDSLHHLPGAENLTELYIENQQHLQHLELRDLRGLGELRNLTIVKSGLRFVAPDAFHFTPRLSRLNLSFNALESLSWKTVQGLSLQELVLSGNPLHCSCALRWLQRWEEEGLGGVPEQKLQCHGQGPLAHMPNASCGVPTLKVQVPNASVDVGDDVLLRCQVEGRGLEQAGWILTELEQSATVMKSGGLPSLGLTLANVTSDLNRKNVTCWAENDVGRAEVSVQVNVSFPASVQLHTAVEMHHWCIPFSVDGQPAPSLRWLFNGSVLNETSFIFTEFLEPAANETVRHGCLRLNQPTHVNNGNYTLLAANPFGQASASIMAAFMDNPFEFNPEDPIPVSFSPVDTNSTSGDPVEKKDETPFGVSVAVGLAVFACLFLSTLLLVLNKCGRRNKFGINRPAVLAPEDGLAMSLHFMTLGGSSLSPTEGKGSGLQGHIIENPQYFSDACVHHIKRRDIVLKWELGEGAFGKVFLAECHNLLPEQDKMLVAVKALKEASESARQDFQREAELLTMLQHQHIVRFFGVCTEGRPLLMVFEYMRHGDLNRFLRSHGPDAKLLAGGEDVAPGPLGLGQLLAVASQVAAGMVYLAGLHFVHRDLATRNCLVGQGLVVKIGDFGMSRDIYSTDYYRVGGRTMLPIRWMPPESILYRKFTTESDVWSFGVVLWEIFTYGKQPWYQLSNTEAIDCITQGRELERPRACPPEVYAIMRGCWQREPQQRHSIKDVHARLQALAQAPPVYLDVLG
T3 sequence (Q16620 whole entry, the tested form may be a part): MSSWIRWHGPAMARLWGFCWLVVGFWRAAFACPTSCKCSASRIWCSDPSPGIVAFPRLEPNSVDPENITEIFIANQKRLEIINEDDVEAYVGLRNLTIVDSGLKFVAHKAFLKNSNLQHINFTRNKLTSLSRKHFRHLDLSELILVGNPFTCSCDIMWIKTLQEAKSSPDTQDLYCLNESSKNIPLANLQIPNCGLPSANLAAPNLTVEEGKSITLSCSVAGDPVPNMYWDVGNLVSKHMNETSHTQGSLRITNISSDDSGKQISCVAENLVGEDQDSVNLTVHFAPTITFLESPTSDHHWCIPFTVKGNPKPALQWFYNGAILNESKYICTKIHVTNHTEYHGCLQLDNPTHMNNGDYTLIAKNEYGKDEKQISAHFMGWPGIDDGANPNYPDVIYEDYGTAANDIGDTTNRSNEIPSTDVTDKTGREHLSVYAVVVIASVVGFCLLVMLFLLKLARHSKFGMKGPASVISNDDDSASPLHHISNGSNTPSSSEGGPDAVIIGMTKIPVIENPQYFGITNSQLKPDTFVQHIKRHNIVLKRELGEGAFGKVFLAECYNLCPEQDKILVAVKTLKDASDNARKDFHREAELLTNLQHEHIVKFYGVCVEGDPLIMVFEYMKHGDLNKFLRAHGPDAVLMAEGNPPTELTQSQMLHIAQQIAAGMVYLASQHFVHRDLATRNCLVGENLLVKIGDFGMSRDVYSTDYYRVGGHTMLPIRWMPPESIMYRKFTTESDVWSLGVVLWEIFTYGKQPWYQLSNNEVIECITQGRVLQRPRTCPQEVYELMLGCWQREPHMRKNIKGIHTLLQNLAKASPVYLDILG
T2 sequence (O60674 whole entry): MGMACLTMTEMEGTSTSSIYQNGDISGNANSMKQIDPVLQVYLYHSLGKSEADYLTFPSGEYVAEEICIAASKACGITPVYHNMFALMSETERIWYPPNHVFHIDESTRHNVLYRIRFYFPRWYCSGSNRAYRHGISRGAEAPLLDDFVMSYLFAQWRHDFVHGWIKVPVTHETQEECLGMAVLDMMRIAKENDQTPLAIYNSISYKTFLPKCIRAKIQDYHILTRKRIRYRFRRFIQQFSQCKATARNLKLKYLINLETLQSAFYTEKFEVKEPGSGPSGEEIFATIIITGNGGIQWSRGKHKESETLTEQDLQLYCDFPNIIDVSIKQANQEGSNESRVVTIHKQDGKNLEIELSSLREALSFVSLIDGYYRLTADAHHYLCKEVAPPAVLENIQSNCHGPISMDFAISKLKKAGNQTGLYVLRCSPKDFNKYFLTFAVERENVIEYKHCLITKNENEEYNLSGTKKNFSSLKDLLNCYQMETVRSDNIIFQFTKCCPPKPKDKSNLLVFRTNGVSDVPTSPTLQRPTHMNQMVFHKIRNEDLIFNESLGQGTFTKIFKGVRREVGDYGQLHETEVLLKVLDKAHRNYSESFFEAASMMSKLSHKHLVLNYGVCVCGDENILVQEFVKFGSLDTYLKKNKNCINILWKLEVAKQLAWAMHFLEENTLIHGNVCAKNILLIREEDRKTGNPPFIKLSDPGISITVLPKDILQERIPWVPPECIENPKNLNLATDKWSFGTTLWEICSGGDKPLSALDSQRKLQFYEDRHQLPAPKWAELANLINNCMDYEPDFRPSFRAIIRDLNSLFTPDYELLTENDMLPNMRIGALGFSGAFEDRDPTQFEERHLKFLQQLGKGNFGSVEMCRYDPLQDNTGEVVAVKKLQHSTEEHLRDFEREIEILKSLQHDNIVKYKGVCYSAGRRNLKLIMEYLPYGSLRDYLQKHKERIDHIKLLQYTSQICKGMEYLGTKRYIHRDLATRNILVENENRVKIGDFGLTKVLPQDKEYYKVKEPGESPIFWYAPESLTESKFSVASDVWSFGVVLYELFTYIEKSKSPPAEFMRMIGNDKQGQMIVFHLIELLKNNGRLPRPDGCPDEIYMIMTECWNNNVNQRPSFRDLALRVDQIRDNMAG
Chain of NT-3 growth factor receptor (Q16288 whole entry, the tested form may be a part): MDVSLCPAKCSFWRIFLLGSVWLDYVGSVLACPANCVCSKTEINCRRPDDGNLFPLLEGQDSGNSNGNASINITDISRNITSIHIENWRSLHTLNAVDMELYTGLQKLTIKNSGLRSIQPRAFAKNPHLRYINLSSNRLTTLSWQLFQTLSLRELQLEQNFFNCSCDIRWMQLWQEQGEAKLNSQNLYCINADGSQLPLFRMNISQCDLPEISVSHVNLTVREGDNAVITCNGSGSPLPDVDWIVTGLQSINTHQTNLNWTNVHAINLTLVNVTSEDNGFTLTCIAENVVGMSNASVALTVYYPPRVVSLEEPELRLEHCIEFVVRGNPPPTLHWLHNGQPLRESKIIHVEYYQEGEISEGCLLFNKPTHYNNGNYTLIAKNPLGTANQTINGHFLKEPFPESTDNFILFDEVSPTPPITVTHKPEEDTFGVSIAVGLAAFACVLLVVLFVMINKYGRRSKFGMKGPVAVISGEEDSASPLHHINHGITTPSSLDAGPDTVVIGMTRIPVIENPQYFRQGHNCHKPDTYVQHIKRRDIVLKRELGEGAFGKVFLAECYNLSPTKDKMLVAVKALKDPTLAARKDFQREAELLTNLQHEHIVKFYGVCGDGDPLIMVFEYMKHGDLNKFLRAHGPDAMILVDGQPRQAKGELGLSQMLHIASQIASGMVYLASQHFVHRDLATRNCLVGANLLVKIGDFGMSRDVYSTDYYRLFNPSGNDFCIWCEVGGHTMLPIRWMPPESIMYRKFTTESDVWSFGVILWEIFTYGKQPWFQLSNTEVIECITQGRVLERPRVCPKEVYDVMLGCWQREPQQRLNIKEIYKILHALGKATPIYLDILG

`CS(=N)(=O)c1ccc(-c2ccc(CNC(=O)Cn3c4c(c5cc(F)ccc53)CCn3nccc3-4)nc2)cc1` (stereo not given) showed an IC50 [1] of 0.0007 to 0.001 µM.
Work on `COCCN1C[C@@H](NC(=O)Nc2c(C)c(-c3cnn(C)c3)nn2-c2ccccc2)[C@H](c2ccccc2)C1` yielded an IC50 [1] of 0.0017 µM and an IC50 [2] of 0.0061 µM.
`Cc1cc(Nc2cncc(N[C@@H](C)c3ccc(F)cc3)n2)n[nH]1` showed an inhibition [3] of 100%.
For `N#Cc1cc([N+](=O)[O-])c(Nc2cc(C3CC3)[nH]n2)cc1N[C@@H](CO)c1ccc(F)cc1`, the IC50 [4] was 0.859 µM.
`Nc1nn2cc(N3CCC[C@@H]3c3cc(F)ccc3F)cnc2c1C(=O)Nc1ccc(F)cc1` gave an IC50 [5] of under 0.01 µM, an IC50 [6] of under 0.01 µM and an IC50 [7] of over 0.5 µM. For the same compound, the IC50 [8] was under 0.001 µM.
With `COCCN1C[C@@H](NC(=O)Nc2c(C)c(-c3ccnc(C)n3)nn2-c2ccccc2)[C@H](c2cccc(F)c2)C1` the IC50 [1] was 0.0011 µM and the IC50 [2] was 0.0019 µM.
With `CC(C)c1cc(C(=O)c2cccc(NC(=O)Nc3ccc4ccccc4c3)c2)c2c(N)ncnn12` the IC50 (NTRK1/NTRK2) was under 0.001 µM.
For `O=C(Cn1c2c(c3cc(F)ccc31)CCn1nccc1-2)NCc1ccc(-c2c(F)cccc2F)cn1`, the IC50 [1] was 0.0009 to 0.001 µM.
`CS(=N)(=O)c1ccc(-c2ccc(CNC(=O)Cn3c4c(c5ccccc53)CCn3nccc3-4)nc2)cc1` (stereo not given) showed an IC50 [1] of 0.0005 to 0.001 µM.
Work on `COCCN1C[C@@H](NC(=O)Nc2c(C)c(C(C)(C)C)nn2-c2ccccc2)[C@H](c2ccc(F)c(F)c2)C1` yielded an IC50 [1] of 0.0015 µM and an IC50 [2] of 0.0013 µM.
Compound `N#Cc1cnn2ccc(N3C[C@@H](F)C[C@@H]3c3cc(F)ccc3F)nc12` has an IC50 [9] of under 0.01 µM.
`Nc1cc(CNC(=O)c2cc(NC(=O)c3cc(-c4cccc(F)n4)c(F)cc3Cl)n(-c3ccccc3)n2)ccn1` gave an IC50 [10] of 0.00104 µM.
With `O=C(Nc1ccc(F)cc1)c1cnc2ccc(N3CCCC3c3cc(F)ccc3F)cn12` (stereo not given) the IC50 [11] was under 0.05 µM.
With `CCN1CCN(Cc2ccc(NC(=O)Nc3nc4ccc(Oc5ccnc(C(=O)NC)c5)cc4s3)cc2C(F)(F)F)CC1` the IC50 [12] was 0.00442 µM, the IC50 (KM12) was 0.019 µM and the IC50 [13] was 0.00381 µM. It also gave a GI50 (K562) of 0.0514 µM.
In the case of `C[C@H](Nc1cc(Nc2cc(C3CC3)[nH]n2)c([N+](=O)[O-])cc1F)c1ccc(F)cc1`, the IC50 [4] is reported as 0.426 µM.
`CS(=O)(=O)Nc1cccc(-c2c[nH]c3ncc(-c4cncc(NS(=O)(=O)c5ccccc5)c4)cc23)c1` gave an IC50 [4] of over 1 µM.
In the case of `O=C(c1cnc2ccc(N3CCCC3c3cc(F)ccc3F)cn12)N1CC(O)C1` (stereo not given), the IC50 [11] is reported as under 0.05 µM.
`CC(C)c1nnc(-c2cnn3ccc(N4CCCC4c4cc(F)ccc4F)nc23)s1` (stereo not given) showed an IC50 [14] of under 0.01 µM.
`C[C@H](Nc1ncc(Cl)c(Nc2cc(C3CC3)[nH]n2)n1)c1ccc(F)cn1` showed an IC50 [4] of 0.008 µM.
Compound `COCCN1C[C@@H](NC(=O)Nc2cc3c(nc2-c2ccccc2)CCCC3)[C@H](c2ccccc2)C1` has an IC50 [15] of under 0.1 µM.
Compound `OCC[C@H](Nc1nc(Nc2cc(C3CC3)[nH]n2)c2sccc2n1)c1ccc(F)cc1` has an IC50 [4] of 0.059 µM.
`Cc1nc(-c2ccccc2)c(NC(=O)Nc2cnc3ccccn23)s1` gave an IC50 [1] of 0.048 µM.
Work on H-TGLDSDGLYQN-OH yielded an IC50 (OVCAR-3) of 0.2 µM and an IC50 (SK-OV-3) of 0.2 µM.
`C[C@H](Oc1cc(-c2cnn(C3CCNCC3)c2)cnc1N)c1c(Cl)ccc(F)c1Cl` gave an IC50 (IMR-32) of 0.1 µM.
`C[C@H](Nc1ncc(F)c(Nc2cc(C3CC3)[nH]n2)n1)c1ccc(F)cn1` showed an IC50 [4] of 0.01 µM.
For `C[C@H](Nc1ncc(Br)c(Nc2cc(C3CC3)[nH]n2)n1)c1ccc(F)cn1`, the IC50 [4] was 0.005 µM.
In the case of H-NTDLLNSNDNG-OH, the IC50 (OVCAR-3) is reported as 0.2 µM and the IC50 (SK-OV-3) is reported as 0.2 µM.
`CC(C)c1cc(C(=O)c2cccc(NC(=O)Nc3ccccc3)c2)c2c(N)ncnn12` showed an IC50 (NTRK1/NTRK2) of under 0.001 µM.
In the case of `C[C@H](Nc1nc(Nc2cc(C3CC3)[nH]n2)c(Cl)cc1Cl)c1ccc(F)cc1`, the IC50 [4] is reported as 0.109 µM.
